From patent US9145418B2, “Substituted 3,4-dihydropyrrolo[1,2-a]pyrazin-1(2H)-ones as protein kinase inhibitors” (NERVIANO MEDICAL SCIENCES S.R.L., priority 2011, dated 2015)

Experiments:
[1] = tested on: MV-4-11 (biphenotypic B myelomonocytic leukemia) cells; experiment: In vitro cell proliferation assay (CellTiter-Glo); assay type: cell-based; details: Homo sapiens, MV4-11, MV-4-11 cells, 72 hours
Method: In vitro Cell Proliferation Assay
MV-4-11 (biphenotypic B myelomonocytic leukemia) cells (1250 cells/well) were seeded in white 384 well-plates in complete medium (RPMI 1640 or EMEM plus 10% Fetal bovine serum) and treated with compounds dissolved in 0.1% DMSO, 24 h after seeding. The cells were incubated at 37° C. and 5% CO2 and after 72 hours the plates were processed using CellTiter-Glo assay (Promega) following the manufacturer's instruction.
CellTiter-Glo is a homogenous method based on the quantification of the ATP present, an indicator of metabolically active cells. ATP is quantified using a system based on luciferase and D-luciferin resulting into light generation. The luminescent signal is proportional to the number of cells present in culture.
Briefly 25 μl/well reagent solution were added to each wells and after 5 minutes shacking microplates were red by Envision (PerkinElmer) luminometer. The luminescent signal was proportional to the number of cells present in culture.
Inhibitory activity was evaluated comparing treated versus control data using Assay Explorer (MDL) program. IC50 was calculated using sigmoidal interpolation curve.

Full-length human PIM1 = Full-length human PIM1 (Homo sapiens (Human), UniProt P11309); experiment: Biochemical assay for inhibitors of PIM1 kinase activity (33P trans-phosphorylation, Dowex); details: ATP 200 μM, Aktide 25 μM, enzyme 1 nM; read-out: PIM-1 IC50
Method: The short forms and abbreviations used herein have the following meaning: • Ci Curie • DMSO dimethylsulfoxide • KDa kiloDalton • microCi microCurie • mg milligram • microg microgram • ng nanogram • L liter • mL milliliter • μL microliter • M molar • mM millimolar • μM micromolar • nM nanomolar Biochemical Assay for Inhibitors of PIM1 Kinase Activity
The inhibitory activity of putative kinase inhibitors and the potency of selected compounds were determined using a trans-phosphorylation assay.
Specific peptide or protein substrates are trans-phosphorylated by their specific ser-thr or tyr kinase in the presence of ATP traced with ^33P-γ-ATP, and in the presence of their own optimal buffer and cofactors.
At the end of the phosphorylation reaction, more than 98% unlabeled ATP and radioactive ATP is captured by an excess of the ion exchange Dowex resin; the resin then settles down to the bottom of the reaction plate by gravity. Supernatant is subsequently withdrawn and transferred into a counting plate, then evaluated by β-counting.
The buffer for PIM1 assay was composed of HEPES 50 mM, at pH 7.5, with 10 mM MgCl2, 1 mM DTT, 3 μM NaVO3, and 0.2 mg/mL BSA.
Full-length human PIM1 was expressed and purified as described in Bullock A N, et al., J. Biol. Chem. 2005, 280, 41675-82.
ATP concentration: 200 μM
Enzyme concentration: 1 nM
Substrate concentration Aktide (Chemical Abstract Service Registry Number 324029-01-8): 25 μM
The test mix consisted of: • 1) 3× Enzyme mix (done in Kinase Buffer 3×), 5 μL/well • 2) 3× substrate and ATP mix (done in ddH2O), together with ^33P-γ-ATP, 5 μL/well • 3) 3× test compounds (diluted into ddH2O-3% DMSO)—5 μL/well
An automated station (Biomek FX, Beckman) was used for serial dilutions, producing 1:3 dilutions in 100% DMSO, from line A1 to A10, for all the compounds in the column. […] In a standard experiment, the highest concentration (3×) of compounds is typically 30 μM, while the lowest one is typically 1.5 nM. Each 384-well plate generates at least one curve of the standard inhibitor staurosporine and reference wells (total enzyme activity vs. no enzymatic activity) for evaluation of Z′ and signal to background (SIB) ratio.
384-well plates, V bottom (test plates) are prepared with 5 μl of compound diluted as previously described (3×) and then placed onto a PlateTrak 12 robotized station (Perkin Elmer; the robot has one 384-tip pipetting head for assay start, plus one 96-tip head for dispensing resin) together with one reservoir for Enzyme mix (3×) and one for ATP mix (3×).
Data are analyzed by an internally customized version of the “Assay Explorer” SW package, which provides sigmoidal fitting of the ten-dilution curves for IC50 determination in secondary assay/hit confirmation routines.

Full-length human PIM2 = Full-length human PIM2 (Homo sapiens (Human), UniProt Q9P1W9); experiment: PIM2 kinase inhibition assay: Dowex technique; assay type: biochemical; details: ATP 4 μM, Aktide 5 μM, enzyme 1.5 nM; read-out: PIM-2 IC50
Method: Method for PIM2 Kinase Inhibition Assay: Dowex Technique
The buffer for PIM2 assay was composed of HEPES 50 mM, at pH 7.5, with 1 mM MgCl2, 1 mM DTT, 3 μM Na3VO4, and 0.2 mg/mL BSA.
Full-length human PIM2 was expressed and purified as described in Fedorov O, et al., PNAS 2007 104, 51, 20523-28.
Enzyme concentration=1.5 nM
Aktide substrate (Chemical Abstract Service Registry Number 324029-01-8)=5 μM
See above: same procedure as described for PIM1.

Full-length human PIM2, sequence (Q9P1W9 whole entry): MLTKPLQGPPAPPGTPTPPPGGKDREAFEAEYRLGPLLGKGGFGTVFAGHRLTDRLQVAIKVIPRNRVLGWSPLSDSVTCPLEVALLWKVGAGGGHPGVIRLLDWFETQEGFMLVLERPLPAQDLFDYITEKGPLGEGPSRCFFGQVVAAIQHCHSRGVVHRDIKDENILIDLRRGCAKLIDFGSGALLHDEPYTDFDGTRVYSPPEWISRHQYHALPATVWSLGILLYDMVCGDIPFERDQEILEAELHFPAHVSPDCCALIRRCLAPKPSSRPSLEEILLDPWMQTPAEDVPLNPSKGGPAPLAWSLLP
Full-length human PIM1, sequence (P11309 whole entry): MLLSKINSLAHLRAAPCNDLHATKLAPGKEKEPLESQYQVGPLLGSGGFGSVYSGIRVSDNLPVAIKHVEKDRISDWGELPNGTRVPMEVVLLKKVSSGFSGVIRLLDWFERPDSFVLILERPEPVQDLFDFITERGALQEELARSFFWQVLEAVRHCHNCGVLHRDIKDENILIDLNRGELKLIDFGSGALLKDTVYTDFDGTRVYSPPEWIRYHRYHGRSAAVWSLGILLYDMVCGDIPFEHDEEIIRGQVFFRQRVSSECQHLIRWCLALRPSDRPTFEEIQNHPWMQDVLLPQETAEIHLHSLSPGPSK

SMILES	IC50 [1]	IC50 (Full-length human PIM1)	IC50 (Full-length human PIM2)
CN1CCN(C[C@@H](NC(=O)C[C@H]2CNC(=O)c3cc(-c4cccc(Cl)c4)cn32)C2CCCCC2)CC1 [Compound 2, 2-[(4S)-7-(3-chlorophenyl)-1-oxo-1,2,3,4-tetrahydropyrrolo[1,2-a]pyrazin-4-yl]-N-[(1S)-1-cyclohexyl-2-(4-methylpiperazin-1-yl)ethyl]acetamide]	1530 nM	1 nM	–
CN(C)C1CCN(C[C@@H](NC(=O)C[C@H]2CNC(=O)c3cc(-c4ccc(F)c(F)c4)cn32)C2CCCCC2)CC1 [Compound 6, N-{(1S)-1-cyclohexyl-2-[4-(dimethylamino)piperidin-1-yl]ethyl}-2-[(4S)-7-(3,4-difluorophenyl)-1-oxo-1,2,3,4-tetrahydropyrrolo[1,2-a]pyrazin-4-yl]acetamide]	3150 nM	8 nM	171 nM
CN(C)C1CCN(C[C@@H](NC(=O)C[C@H]2CNC(=O)c3cc(-c4ccnc(F)c4)cn32)C2CCCCC2)CC1 [Compound 10, N-{(1S)-1-cyclohexyl-2-[4-(dimethylamino)piperidin-1-yl]ethyl}-2-[(4S)-7-(2-fluoropyridin-4-yl)-1-oxo-1,2,3,4-tetrahydropyrrolo[1,2-a]pyrazin-4-yl]acetamide]	6750 nM	6 nM	57 nM
CN(C)C1CCN(C[C@@H](NC(=O)C[C@H]2CNC(=O)c3cc(-c4cccc(Cl)c4)cn32)C2CCCCC2)CC1 [Compound 23, 2-[(4S)-7-(3-chlorophenyl)-1-oxo-1,2,3,4-tetrahydropyrrolo[1,2-a]pyrazin-4-yl]-N-{(1S)-1-cyclohexyl-2-[4-(dimethylamino)piperidin-1-yl]ethyl}acetamide]	1130 nM	1 nM	36 nM
CN1CCN(C[C@@H](NC(=O)C[C@H]2CNC(=O)c3cc(-c4cc(Cl)ccc4F)cn32)C2CCCCC2)CC1 [Compound 26, 2-[(4S)-7-(5-chloro-2-fluorophenyl)-1-oxo-1,2,3,4-tetrahydropyrrolo[1,2-a]pyrazin-4-yl]-N-[(1S)-1-cyclohexyl-2-(4-methylpiperazin-1-yl)ethyl]acetamide]	1160 nM	2 nM	132 nM
